This note sets out measurements from US20090252751A1, “Immune adjuvant comprising ubiquinone” (priority 2007, published 2009).

Format in all cases: in vivo
In test [1] the test system is mice. The test is described as follows: Production amount of antibody in mice by ELISA with CoQ2, CoQ4, CoQ6 or CoQ10 as immunoadjuvant (Test Example 3). The conditions noted are these: used as immunoadjuvant together with antigenic substance; serum sample on the 25th day; ELISA absorbance (FIG. 3). On the procedure:
The following test was carried out according to the procedure of Text example 1 by using ELISA to confirm the amount of antibody in mice produced upon the administration of coenzyme Q2 (n=2; CoQ2), coenzyme Q4 (n=4; CoQ4), coenzyme Q6 (n=6; CoQ6) or coenzyme Q10 (n=10; CoQ10) together with an antigenic substance. The case where only an antigenic substance had been administered was selected as a reference example in the test.
As a result, the average of the absorbance for the serum sample on the 25th day from the start of the test in each group was as shown in FIG. 3.
(In general: In an ELISA, binding on a coated surface is turned into a signal by an enzyme label.)

Test [2] has as its system Balb/c mice. Nature of the test: Measurement of IgG1/IgG2 ratio in blood sample as index of Th2/Th1 balance (Test Example 2). As to the method: The blood sample collected on the 25th day from the start of the test was provided, and the IgG1/IgG2 ratio was measured as an index of Th2/Th1 balance.
Further, a blood sample obtained by inoculating only the antigenic substance by intraperitoneal administration instead of the dermal administration at the same time as in the administration schedule in Test Example 1 was used as a control blood sample for comparison.
The IgG1/IgG2 ratio was measured with a Mouse Monoclonal Antibody Isotyping Reagents kit (SIGMA).
Specifically, a mouse serum was diluted with PBS by a factor of 1000 to give a solution. The solution (100 μL) was added to wells in a plate and was incubated at 37° C. for one hr. Next, each well was washed three times with PBS, and 100 μL of isotyping specific reagents (reagents containing IgA, IgG1, IgG2a, and IgG2b), which had been diluted by a factor of 1000, were added to the wells followed by incubation at room temperature for 30 min. Each well was washed three times with PBST. A peroxidase labelled […] (manufactured by SIGMA) (100 μL), which had been diluted with PBST by a factor of 5000, was added to the wells, and the wells were allowed to stand at room temperature for one hr. The wells were then washed three times with PBST. […] For each well, the absorbance was measured with Multiscan Ascent (manufactured by Thermo Labsystems, wave length 405 nm).

Test [3] concerns Balb/c mice. The test is described as follows: Production amount of antibody in mouse serum by ELISA after dermal administration of antigenic substance with immunoadjuvant (Test Example 1).

For `COC1=C(OC)C(=O)C(C/C=C(\C)CCC=C(C)C)=C(C)C1=O` [coenzyme Q2], in test [1], the “production amount of the antibody compared with the case where only the antigenic substance was administered” value is “larger”.

For the compound `COC1=C(OC)C(=O)C(C/C=C(\C)CC/C=C(\C)CC/C=C(\C)CCC=C(C)C)=C(C)C1=O` [coenzyme Q4], the “production amount of the antibody compared with the case where only the antigenic substance was administered” value in test [1] was “larger”.

With `COC1=C(OC)C(=O)C(C/C=C(\C)CC/C=C(\C)CC/C=C(\C)CC/C=C(\C)CC/C=C(\C)CCC=C(C)C)=C(C)C1=O` [coenzyme Q6], the “production amount of the antibody compared with the case where only the antigenic substance was administered” value in test [1] is “larger”.

Consider `COC1=C(OC)C(=O)C(C/C=C(\C)CC/C=C(\C)CC/C=C(\C)CC/C=C(\C)CC/C=C(\C)CC/C=C(\C)CC/C=C(\C)CC/C=C(\C)CC/C=C(\C)CCC=C(C)C)=C(C)C1=O` [coenzyme Q10], for which the “IgG1/IgG2 ratio (given as average of the absorbance)” value in test [2] (dermal administration of the antigenic substance together with adjuvant, blood sample on the 25th day) came to 2.28. The “production amount of the antibody compared with the case where only the antigenic substance was administered” value in test [1] was “larger”. Also, the “average±standard error of the absorbance (amount of produced antibody, ELISA)” value in test [3] (dermal administration (tape preparation), serum sample on the 25th day from the start of the test, serum diluted 1000-fold, 405 nm, n=4) turned out to be 0.670±0.033.

Take cholera toxin [reference compound]: the “IgG1/IgG2 ratio (given as average of the absorbance)” value in test [2] (mouse, in vivo) came out at 1.46. Besides, in test [3] (mouse, in vivo), the “average±standard error of the absorbance (amount of produced antibody, ELISA)” value amounted to 0.551±0.202.
